Experimental data as given in US9127001B2, “Substituted 4,5,6,7-tetrahydro-1H-pyrazolo[4,3-c]pyridines, their use as medicament, and pharmaceutical preparations comprising them” (Sanofi, priority 2011, dated 2015).

How the values were obtained:
Human TASK-1 channels = Human TASK-1 channels (Homo sapiens (Human), UniProt O14649); experiment: Activity on the TASK-1 channel in Xenopus oocytes (two-microelectrode voltage clamp); assay type: cell-based; details: human TASK-1 expressed in Xenopus oocytes, currents during pulses to 40 mV, room temperature
Summary of the method: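 Human TASK-1 was expressed in defolliculated Xenopus laevis oocytes by in vitro-synthesised RNA injection and recorded by two-microelectrode voltage clamp. Oocytes were superfused with ND96 (pH 7.4) at room temperature, with compound added at rising concentrations. IC50 came from a general dose-response fit.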

[1] = system: left atrium of the anesthetized pig; experiment: Refractory period and left-atrial vulnerability in the anesthetized pig; assay type: in vivo; details: bolus 1 mg/kg, mean value n = 3
Experimental: Investigation of the Refractory Period and the Left-Atrial Vulnerability in the Pig
The compounds were tested for prolongation of the refractory period and antiarrhythmic activity on the atrium of the anesthetized pig as described in the literature (Knobloch et al. 2002. Naunyn-Schmiedberg's Arch. Pharmacol. 366; 482-487). Here the anti-arrhythmic action relates to the inhibition of the occurrence of episodes of arrhythmias which are induced by a prematurely placed extra-stimulus (S2) in the left atrium (=left-atrial vulnerability). The refractory period values are stated in percent of the basal values 15 minutes after injection. Mean values for the refractory periods are shown from three rates (150, 200 and 250/min).
The action of 3-[5-Acetyl-1-(2,4-difluoro-benzyl)-4,5,6,7-tetrahydro-1H-pyrazolo[4,3-c]pyridin-3-yl]-benzonitrile (6a) on the refractory period of the left atrium and antiarrhythmic activity in the anesthetized pig after a bolus administration of 1 mg/kg is shown in table 1. From the results shown in table 1, it is seen that it was possible to prevent 61% of the induced arrhythmias.

Chain of Human TASK-1 channels (O14649 whole entry, the tested form may be a part): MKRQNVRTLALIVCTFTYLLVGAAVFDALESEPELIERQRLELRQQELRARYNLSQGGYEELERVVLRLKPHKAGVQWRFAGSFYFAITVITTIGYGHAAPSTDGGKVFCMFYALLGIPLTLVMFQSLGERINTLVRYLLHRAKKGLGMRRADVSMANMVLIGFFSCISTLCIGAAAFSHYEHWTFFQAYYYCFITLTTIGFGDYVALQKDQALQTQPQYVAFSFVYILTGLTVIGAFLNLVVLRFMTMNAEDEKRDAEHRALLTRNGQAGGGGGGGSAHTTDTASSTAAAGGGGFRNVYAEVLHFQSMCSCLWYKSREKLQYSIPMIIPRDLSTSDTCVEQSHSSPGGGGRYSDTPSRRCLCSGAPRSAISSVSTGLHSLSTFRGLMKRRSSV

IC50 (Human TASK-1 channels) [nM] | Compound | % inhibition of the arrhythmias ([1]; S2-induced arrhythmias, 3 measurements before vs. 3 during first hour after administration) [%] | % increase in the refractory period ([1]; left atrium, 15 minutes after injection, mean of three rates (150, 200 and 250/min)) [%]
95 | CC(=O)N1CCc2c(c(-c3cccc(C#N)c3)nn2Cc2ccc(F)cc2F)C1 [Example 6a, 3-[5-Acetyl-1-(2,4-difluoro-benzyl)-4,5,6,7-tetrahydro-1H-pyrazolo[4,3-c]pyridin-3-yl]-benzonitrile] | 61 | 14
< 10000 | N#Cc1cccc(-c2nn(Cc3ccc(F)cc3F)c3c2CN(C(=O)CO)CC3)c1 [Example 14a, 3-[1-(2,4-Difluoro-benzyl)-5-(2-hydroxy-acetyl)-4,5,6,7-tetrahydro-1H-pyrazolo[4,3-c]pyridin-3-yl]-benzonitrile] | – | –
